Results reported in US20060069132A1, “Azolecarboxamide herbicides” (priority 2004, published 2006).

Legend:
[1] = system: cocklebur; test: Test B pre-/postemergence herbicide test; type: in vivo, Xanthium strumarium; settings: for Cocklebur plant response rating: postemergence
In short: (§1)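 Seeds were planted and treated preemergence with compounds formulated in a non-phytotoxic solvent mixture containing surfactant, while plants at the 1- to 4-leaf stage (2 to 18 cm) received postemergence sprays. Flooded paddy plants were grown to the 2-leaf stage. After 13 to 15 days in a greenhouse, injury was visually rated 0–100 against untreated controls.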

[2] = system: large crabgrass; test: Test B pre-/postemergence herbicide test; type: in vivo, Digitaria sanguinalis; settings: for Crabgrass, Large plant response rating: postemergence
In short: as §1

[3] = system: rice; test: Test C flooded paddy test; type: in vivo, Oryza sativa
In short: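 Plants were grown to the 1- to 4-leaf stage (2–18 cm) and then treated postemergence, or grown to the 2-leaf stage for the flooded paddy test. They were held in a greenhouse for 12 to 14 days and then scored by eye against controls, where 0 is no effect and 100 is complete control.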

[4] = system: lambsquarters; test: Test B pre-/postemergence herbicide test; type: in vivo, Chenopodium album; settings: for Lambsquarters plant response rating: postemergence
In short: as §1

[5] = system: blackgrass; test: Test B postemergence herbicide test; type: in vivo, Alopecurus myosuroides; settings: postemergence
In short: (§2)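 Postemergence plants were sprayed with formulated test chemicals at 2 to 18 cm height (1- to 4-leaf stage); paddy species were grown to the 2-leaf stage. After 13 to 15 days in a greenhouse, injury was rated visually against untreated controls on a 0–100 scale (0 = no effect, 100 = complete control).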

[6] = system: small flower umbrella sedge; test: Test B flooded paddy test; type: in vivo, Cyperus difformis; settings: 1000 g ai/ha, scale 0 to 100 (0 no effect, 100 complete control)
In short: as §2

[7] = system: pigweed; test: Test B pre-/postemergence herbicide test; type: in vivo, Amaranthus retroflexus; settings: for Pigweed plant response rating: postemergence
In short: as §1

[8] = system: velvetleaf; test: Test B pre-/postemergence herbicide test; type: in vivo, Abutilon theophrasti; settings: for Velvetleaf plant response rating: postemergence
In short: as §1

[9] = system: wild oat; test: Test B postemergence herbicide test; type: in vivo, Avena fatua; settings: postemergence
In short: (§3)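 Each value is a visual 0–100 response rating taken against controls 13 to 15 days after treatment in the greenhouse. Plants received formulated chemical postemergence at the 1- to 4-leaf stage or, in flooded paddy, at the 2-leaf stage.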

[10] = system: barnyardgrass; test: Test B flooded paddy test; type: in vivo, Echinochloa crus-galli; settings: 1000 g ai/ha, scale 0 to 100 (0 no effect, 100 complete control)
In short: as §2

[11] = system: wheat; test: Test B postemergence herbicide test; type: in vivo, Triticum aestivum; parameters: key to Wheat plant response rating: 0 = no effect, 100 = complete control; settings: postemergence
In short: as §3

[12] = system: corn; test: Test B pre-/postemergence herbicide test; type: in vivo, Zea mays; settings: for Corn plant response rating: postemergence
In short: as §1

[13] = system: smallflower umbrella sedge; test: Test C flooded paddy test; type: in vivo, Cyperus difformis
[14] = system: barnyardgrass; test: Test B pre-/postemergence herbicide test; type: in vivo, Echinochloa crus-galli; settings: for Barnyardgrass plant response rating: postemergence
In short: as §1

[15] = system: rice; test: Test B pre-/postemergence herbicide test; type: in vivo, Oryza sativa; settings: preemergence
In short: as §1

[16] = system: barnyardgrass; test: Test C flooded paddy test; type: in vivo, Echinochloa crus-galli
In short: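 Ratings (0 = no effect, 100 = complete control) come from visual comparison with untreated plants after 12 to 14 days in the greenhouse. Treatment was postemergence at the 1- to 4-leaf stage (2–18 cm), or at the 2-leaf stage for the flooded paddy barnyardgrass.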

[17] = system: ducksalad; test: Test B flooded paddy test; type: in vivo, Heteranthera limosa; settings: 1000 g ai/ha, scale 0 to 100 (0 no effect, 100 complete control)
In short: as §2

[18] = system: giant foxtail; test: Test B pre-/postemergence herbicide test; type: in vivo, Setaria faberi; settings: for Foxtail, Giant plant response rating: postemergence
In short: as §1

[19] = system: rice; test: Test B flooded paddy test; type: in vivo, Oryza sativa; settings: 1000 g ai/ha, scale 0 to 100 (0 no effect, 100 complete control)
In short: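 Visual ratings, 0 (no effect) to 100 (complete control), made versus controls after 13–15 d greenhouse. Paddy plants treated at 2-leaf stage; postemergence plants at 1- to 4-leaf stage, 2–18 cm tall.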

[20] = system: ducksalad; test: Test C flooded paddy test; type: in vivo, Heteranthera limosa
[21] = system: morningglory; test: Test B pre-/postemergence herbicide test; type: in vivo, Ipomoea coccinea; settings: for Morningglory plant response rating: postemergence
In short: as §1

[22] = system: Surinam grass; test: Test B pre-/postemergence herbicide test; type: in vivo, Urochloa decumbens; settings: for Surinam Grass plant response rating: postemergence
In short: as §1

[23] = 125 g ai/ha, 0 is no effect, 100 is complete control, preemergence
[24] = 125 g ai/ha, visual rating, scale 0 (no effect) to 100 (complete control)
[25] = 500 g ai/ha, visual rating, 0 = no effect, 100 = complete control, preemergence
[26] = 500 g ai/ha, scale 0 to 100, 0 is no effect, 100 is complete control
[27] = 125 g ai/ha, scale 0 to 100 (0 no effect, 100 complete control)
[28] = 250 g ai/ha, scale of 0 to 100, 0 is no effect, 100 is complete control
[29] = 500 g ai/ha, visual rating after 12 to 14 days, scale 0 to 100 (0 no effect, 100 complete control)

Question: CCN1N=C(C(C)(C)C)CC1C(=O)Nc1cc(C(=O)N2CCCCC2)ccc1F (racemic) [Compound 331] was tested. Which “Plant response rating (0 to 100 scale), Cocklebur” value [1, 23] did it give?
Answer: 0

Question: And the “Cocklebur plant response rating” value [1, 24]?
Answer: 10

Question: What about the “Plant response rating, Cocklebur” value [1, 25] of the same compound?
Answer: 0

Question: And the “Cocklebur plant response rating” value [1, 26]?
Answer: 30

Question: And the “Plant response rating (0 to 100 scale), Crabgrass, Large” value [2, 23]?
Answer: 60

Question: What about the “Crabgrass, Large plant response rating” value [2, 24] of the same compound?
Answer: 10

Question: What about the “Plant response rating, Crabgrass, Large” value [2, 25] of the same compound?
Answer: 80

Question: And the “Crabgrass, Large plant response rating” value [2, 26]?
Answer: 10

Question: And the “Rice plant response rating” value ([3]; 62 g ai/ha, scale 0 to 100)?
Answer: 0

Question: And the “Rice plant response rating” value [3, 27]?
Answer: 15

Question: And the “Rice plant response rating” value [3, 28]?
Answer: 50

Question: What about the “Plant response rating, Rice” value [3, 29] of the same compound?
Answer: 65

Question: What about the “Lambsquarters plant response rating” value [4, 24] of the same compound?
Answer: 60

Question: And the “Plant response rating, Lambsquarters” value [4, 25]?
Answer: 100

Question: What about the “Lambsquarters plant response rating” value [4, 26] of the same compound?
Answer: 70

Question: What about the “Blackgrass plant response rating” value [5, 24] of the same compound?
Answer: 10

Question: What about the “Blackgrass plant response rating” value [5, 26] of the same compound?
Answer: 20

Question: What about the “Sedge, Umbrella plant response rating” value [6] of the same compound?
Answer: 90

Question: What about the “Plant response rating (0 to 100 scale), Pigweed” value [7, 23] of the same compound?
Answer: 40

Question: What about the “Pigweed plant response rating” value [7, 24] of the same compound?
Answer: 10

Question: What about the “Plant response rating, Pigweed” value [7, 25] of the same compound?
Answer: 50

Question: What about the “Pigweed plant response rating” value [7, 26] of the same compound?
Answer: 50

Question: What about the “Plant response rating (0 to 100 scale), Velvetleaf” value [8, 23] of the same compound?
Answer: 20

Question: And the “Velvetleaf plant response rating” value [8, 24]?
Answer: 10

Question: And the “Plant response rating, Velvetleaf” value [8, 25]?
Answer: 80

Question: What about the “Velvetleaf plant response rating” value [8, 26] of the same compound?
Answer: 20

Question: And the “Oat, Wild plant response rating” value [9, 24]?
Answer: 10

Question: And the “Oat, Wild plant response rating” value [9, 26]?
Answer: 30

Question: And the “Barnyardgrass plant response rating” value [10]?
Answer: 80

Question: And the “Wheat plant response rating” value [11, 24]?
Answer: 20

Question: What about the “Wheat plant response rating” value [11, 26] of the same compound?
Answer: 20

Question: What about the “Plant response rating (0 to 100 scale), Corn” value [12, 23] of the same compound?
Answer: 20

Question: And the “Corn plant response rating” value [12, 24]?
Answer: 0

Question: What about the “Plant response rating, Corn” value [12, 25] of the same compound?
Answer: 40

Question: What about the “Corn plant response rating” value [12, 26] of the same compound?
Answer: 0

Question: What about the “Sedge, Umbrella plant response rating” value ([13]; 62 g ai/ha, scale 0 to 100) of the same compound?
Answer: 0

Question: And the “Sedge, Umbrella plant response rating” value [13, 27]?
Answer: 20

Question: What about the “Sedge, Umbrella plant response rating” value [13, 28] of the same compound?
Answer: 25

Question: What about the “Plant response rating, Sedge, Umbrella” value [13, 29] of the same compound?
Answer: 65

Question: And the “Plant response rating (0 to 100 scale), Barnyardgrass” value [14, 23]?
Answer: 60

Question: And the “Barnyardgrass plant response rating” value [14, 24]?
Answer: 10

Question: What about the “Plant response rating, Barnyardgrass” value [14, 25] of the same compound?
Answer: 70

Question: What about the “Barnyardgrass plant response rating” value [14, 26] of the same compound?
Answer: 20

Question: What about the “Plant response rating (0 to 100 scale), Rice” value ([15]; 125 g ai/ha, 0 is no effect, 100 is complete control) of the same compound?
Answer: 30

Question: What about the “Plant response rating, Rice” value ([15]; 500 g ai/ha, visual rating, 0 = no effect, 100 = complete control) of the same compound?
Answer: 40

Question: And the “Barnyardgrass plant response rating” value ([16]; 62 g ai/ha, scale 0 to 100 (0 no effect, 100 complete control))?
Answer: 0

Question: And the “Barnyardgrass plant response rating” value [16, 27]?
Answer: 10

Question: And the “Barnyardgrass plant response rating” value [16, 28]?
Answer: 40

Question: What about the “Plant response rating, Barnyardgrass” value [16, 29] of the same compound?
Answer: 65

Question: And the “Ducksalad plant response rating” value [17]?
Answer: 90

Question: What about the “Plant response rating (0 to 100 scale), Foxtail, Giant” value [18, 23] of the same compound?
Answer: 20

Question: What about the “Foxtail, Giant plant response rating” value [18, 24] of the same compound?
Answer: 0

Question: And the “Plant response rating, Foxtail, Giant” value [18, 25]?
Answer: 80

Question: What about the “Foxtail, Giant plant response rating” value [18, 26] of the same compound?
Answer: 30

Question: And the “Rice plant response rating” value [19]?
Answer: 60

Question: What about the “Ducksalad plant response rating” value ([20]; 62 g ai/ha, scale 0 to 100) of the same compound?
Answer: 0

Question: And the “Ducksalad plant response rating” value [20, 27]?
Answer: 50

Question: What about the “Ducksalad plant response rating” value [20, 28] of the same compound?
Answer: 65

Question: What about the “Plant response rating, Ducksalad” value [20, 29] of the same compound?
Answer: 85

Question: And the “Plant response rating (0 to 100 scale), Morningglory” value [21, 23]?
Answer: 0

Question: What about the “Morningglory plant response rating” value [21, 24] of the same compound?
Answer: 0

Question: What about the “Plant response rating, Morningglory” value [21, 25] of the same compound?
Answer: 0

Question: And the “Morningglory plant response rating” value [21, 26]?
Answer: 10

Question: And the “Plant response rating (0 to 100 scale), Surinam Grass” value [22, 23]?
Answer: 40

Question: And the “Surinam Grass plant response rating” value [22, 24]?
Answer: 10

Question: What about the “Plant response rating, Surinam Grass” value [22, 25] of the same compound?
Answer: 60

Question: What about the “Surinam Grass plant response rating” value [22, 26] of the same compound?
Answer: 20
